Assay results: patent US11524966B1 (Valo Early Discovery, Inc., priority 2017, dated 2022)

target: T1, USP25 (USP25-His6, Boston Biochem E-546) (Homo sapiens, UniProt Q9UHP3); test: Ubiquitin-Rhodamine 110 Assay for USP25 Activity, Example A-2; format: biochemical; conditions: Ubiquitin-Rhodamine 110 assay, Example A-2; read-out: USP25 A-2 IC50 range
T1 construct: His6; purchased Boston Biochem E-546
T1 sequence (Q9UHP3 1-1055): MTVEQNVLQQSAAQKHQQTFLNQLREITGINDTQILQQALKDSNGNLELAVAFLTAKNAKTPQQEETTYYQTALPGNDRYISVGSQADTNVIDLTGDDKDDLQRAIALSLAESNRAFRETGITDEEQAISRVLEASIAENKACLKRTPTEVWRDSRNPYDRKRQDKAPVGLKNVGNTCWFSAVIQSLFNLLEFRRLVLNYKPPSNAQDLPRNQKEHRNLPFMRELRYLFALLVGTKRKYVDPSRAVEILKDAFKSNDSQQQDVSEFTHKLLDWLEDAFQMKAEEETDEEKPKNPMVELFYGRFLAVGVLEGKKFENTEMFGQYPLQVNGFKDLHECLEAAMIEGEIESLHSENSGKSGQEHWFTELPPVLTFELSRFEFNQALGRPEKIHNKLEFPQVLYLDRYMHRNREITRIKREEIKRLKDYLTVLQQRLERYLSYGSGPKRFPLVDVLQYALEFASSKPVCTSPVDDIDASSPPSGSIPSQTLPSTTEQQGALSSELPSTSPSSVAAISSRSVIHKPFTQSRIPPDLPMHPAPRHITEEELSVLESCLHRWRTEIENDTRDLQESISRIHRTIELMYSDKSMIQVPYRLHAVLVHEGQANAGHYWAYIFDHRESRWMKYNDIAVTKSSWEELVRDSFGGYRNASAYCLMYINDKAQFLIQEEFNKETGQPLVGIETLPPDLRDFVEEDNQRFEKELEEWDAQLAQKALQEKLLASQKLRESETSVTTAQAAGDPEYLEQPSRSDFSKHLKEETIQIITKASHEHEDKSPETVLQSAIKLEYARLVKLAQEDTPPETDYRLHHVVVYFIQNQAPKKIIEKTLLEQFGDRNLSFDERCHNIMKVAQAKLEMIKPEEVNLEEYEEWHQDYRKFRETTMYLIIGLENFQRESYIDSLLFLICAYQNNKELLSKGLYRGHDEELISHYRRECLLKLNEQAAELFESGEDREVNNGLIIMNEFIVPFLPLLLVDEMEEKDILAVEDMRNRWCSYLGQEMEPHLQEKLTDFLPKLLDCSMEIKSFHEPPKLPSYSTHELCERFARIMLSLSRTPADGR
Summary of the method: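 Steps: compound dilutions (top 25 μM, 3-fold, 10 points) were preincubated 30 min with 75 pM USP25-His6; 25 nM Ub-Rh110 substrate was added under initial-velocity conditions; after 45 min at room temperature, 10 mM citric acid stopped the reaction before fluorescence reading.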

SMILES	IC50
Cc1cc(C)c2c(N)c(C(=O)N[C@H]3COc4cc(N5CC[C@@H]6CNC[C@@H]65)ccc4C3)sc2n1 [Example 227, N-[(3R)-7-[(3aR,6aR)-octahydropyrrolo[2,3-c]pyrrol-1-yl]-3,4-dihydro-2H-1-benzopyran-3-yl]-3-amino-4,6-dimethylthieno[2,3-b]pyridine-2-carboxamide]	50 to 200 nM
N#Cc1c(N2CC3CCC(C2)N3)cc(F)c2c1OC[C@H](NC(=O)c1cnc3c(c1)[C@@H]1C[C@@H]1CN3)C2 [Example 228, (6aS,7aR)-N-[(3R)-8-cyano-7-{3,8-diazabicyclo[3.2.1]octan-3-yl}-5-fluoro-3,4-dihydro-2H-1-benzopyran-3-yl]-5H,6H,6aH,7H,7aH-cyclopropa[c]1,8-naphthyridine-2-carboxamide]	200 to 2000 nM
N#Cc1c(N2CC3CCC(C2)N3)cc(F)c2c1OC[C@H](NC(=O)c1cnc3c(c1)[C@H]1C[C@H]1CN3)C2 [Example 229, (6aR,7aS)-N-[(3R)-8-cyano-7-{3,8-diazabicyclo[3.2.1]octan-3-yl}-5-fluoro-3,4-dihydro-2H-1-benzopyran-3-yl]-5H,6H,6aH,7H,7aH-cyclopropa[c]1,8-naphthyridine-2-carboxamide]	> 2000 nM
Cc1cc(C)c2c(N)c(C(=O)N[C@H]3COc4c(C#N)c(N5CC6CCC(C5)N6)cc(F)c4C3)sc2n1 [Example 230, 3-amino-N-[(3R)-8-cyano-7-{3,8-diazabicyclo[3.2.1]octan-3-yl}-5-fluoro-3,4-dihydro-2H-1-benzopyran-3-yl]-4,6-dimethylthieno[2,3-b]pyridine-2-carboxamide]	200 to 2000 nM
Cc1ccc2c(N)c(C(=O)N[C@H]3COc4cc(N5CC[C@H]6CC[C@@H](N)C[C@H]65)ccc4C3)sc2n1 [Example 231, N-[(3R)-7-[(3aR,6R,7aR)-6-amino-octahydro-1H-indol-1-yl]-3,4-dihydro-2H-1-benzopyran-3-yl]-3-amino-6-methylthieno[2,3-b]pyridine-2-carboxamide]	1 to 50 nM
Cc1ccc2c(N)c(C(=O)N[C@H]3COc4cc(N5CC[C@H]6CC[C@H](N)C[C@H]65)ccc4C3)sc2n1 [Example 232, N-[(3R)-7-[(3aR,6S,7aR)-6-amino-octahydro-1H-indol-1-yl]-3,4-dihydro-2H-1-benzopyran-3-yl]-3-amino-6-methylthieno[2,3-b]pyridine-2-carboxamide]	50 to 200 nM
Cc1ccc2c(N)c(C(=O)N[C@H]3COc4cc(N5CC[C@@H]6CC[C@@H](N)C[C@@H]65)ccc4C3)sc2n1 [Example 233, N-[(3R)-7-[(3aS,6R,7aS)-6-amino-octahydro-1H-indol-1-yl]-3,4-dihydro-2H-1-benzopyran-3-yl]-3-amino-6-methylthieno[2,3-b]pyridine-2-carboxamide]	1 to 50 nM
Cc1ccc2c(N)c(C(=O)N[C@H]3COc4cc(N5CC[C@@H]6CC[C@H](N)C[C@@H]65)ccc4C3)sc2n1 [Example 234, N-[(3R)-7-[(3aS,6S,7aS)-6-amino-octahydro-1H-indol-1-yl]-3,4-dihydro-2H-1-benzopyran-3-yl]-3-amino-6-methylthieno[2,3-b]pyridine-2-carboxamide]	50 to 200 nM
Cc1ccc2c(N)c(C(=O)N[C@H]3COc4cc(N5CC[C@H]6CNCC[C@H]65)ccc4C3)sc2n1 [Example 235, N-[(3R)-7-[(3aS,7aR)-octahydro-1H-pyrrolo[3,2-c]pyridin-1-yl]-3,4-dihydro-2H-1-benzopyran-3-yl]-3-amino-6-methylthieno[2,3-b]pyridine-2-carboxamide]	50 to 200 nM
Cc1ccc2c(N)c(C(=O)N[C@H]3COc4cc(N5CC[C@@H]6CNCC[C@@H]65)ccc4C3)sc2n1 [Example 236, N-[(3R)-7-[(3aR,7aS)-octahydro-1H-pyrrolo[3,2-c]pyridin-1-yl]-3,4-dihydro-2H-1-benzopyran-3-yl]-3-amino-6-methylthieno[2,3-b]pyridine-2-carboxamide]	50 to 200 nM
Cc1ccc2c(N)c(C(=O)N[C@H]3COc4cc(N5C[C@@H]6NCCC(F)(F)[C@@H]6C5)ccc4C3)sc2n1 [Example 237, N-[(3R)-7-[(4aR,7aR)-4,4-difluoro-octahydro-1H-pyrrolo[3,4-b]pyridin-6-yl]-3,4-dihydro-2H-1-benzopyran-3-yl]-3-amino-6-methylthieno[2,3-b]pyridine-2-carboxamide]	200 to 2000 nM
Cc1ccc2c(N)c(C(=O)N[C@H]3COc4cc(N5C[C@H]6NCCC(F)(F)[C@H]6C5)ccc4C3)sc2n1 [Example 238, N-[(3R)-7-[(4aS,7aS)-4,4-difluoro-octahydro-1H-pyrrolo[3,4-b]pyridin-6-yl]-3,4-dihydro-2H-1-benzopyran-3-yl]-3-amino-6-methylthieno[2,3-b]pyridine-2-carboxamide]	200 to 2000 nM
CO[C@H]1CN(c2ccc3c(n2)CC[C@H](NC(=O)c2sc4nc(C)ccc4c2N)C3)C[C@]1(C)N [Example 239, 3-amino-N-[(6S)-2-[(3S,4S)-3-amino-4-methoxy-3-methylpyrrolidin-1-yl]-5,6,7,8-tetrahydroquinolin-6-yl]-6-methylthieno[2,3-b]pyridine-2-carboxamide]	> 2000 nM
CO[C@@H]1CN(c2ccc3c(n2)CC[C@H](NC(=O)c2sc4nc(C)ccc4c2N)C3)C[C@@]1(C)N [Example 240, 3-amino-N-[(6S)-2-[(3R,4R)-3-amino-4-methoxy-3-methylpyrrolidin-1-yl]-5,6,7,8-tetrahydroquinolin-6-yl]-6-methylthieno[2,3-b]pyridine-2-carboxamide]	> 2000 nM
Cc1cc(C)c2c(N)c(C(=O)N[C@H]3COc4cc(N5CC6CCC(C5)N6)c(C#N)c(F)c4C3)sc2n1 [Example 241, 3-amino-N-[(3R)-6-cyano-7-{3,8-diazabicyclo[3.2.1]octan-3-yl}-5-fluoro-3,4-dihydro-2H-1-benzopyran-3-yl]-4,6-dimethylthieno[2,3-b]pyridine-2-carboxamide]	1 to 50 nM
Cc1ccc2c(N)c(C(=O)N[C@H]3COc4cc(N5CCC[C@@H]6CNC[C@@H]65)ccc4C3)sc2n1 [Example 242, N-[(3R)-7-[(4aR,7aR)-octahydro-1H-pyrrolo[3,4-b]pyridin-1-yl]-3 ,4-dihydro-2H-1-benzopyran-3-yl]-3-amino-6-methylthieno[2,3-b]pyridine-2-carboxamide]	50 to 200 nM
Cc1ccc2c(N)c(C(=O)N[C@H]3COc4cc(N5CCC[C@H]6CNC[C@H]65)ccc4C3)sc2n1 [Example 243, N-[(3R)-7-[(4aS,7aS)-octahydro-1H-pyrrolo[3,4-b]pyridin-1-yl]-3,4-dihydro-2H-1-benzopyran-3-yl]-3-amino-6-methylthieno[2,3-b]pyridine-2-carboxamide]	1 to 50 nM
Cc1ccc2c(N)c(C(=O)N[C@H]3COc4cc(N5C[C@H](N)CC[C@@H]5C(F)(F)F)ccc4C3)sc2n1 [Example 244, 3-amino-N-[(3R)-7-[(2R,5R)-5-amino-2-(trifluoromethyl)piperidin-1-yl]-3,4-dihydro-2H-1-benzopyran-3-yl]-6-methylthieno[2,3-b]pyridine-2-carboxamide]	1 to 50 nM
Cc1ccc2c(N)c(C(=O)N[C@H]3COc4cc(N5C[C@@H](N)CC[C@H]5C(F)(F)F)ccc4C3)sc2n1 [Example 245, 3-amino-N-[(3R)-7-[(2S,5S)-5-amino-2-(trifluoromethyl)piperidin-1-yl]-3,4-dihydro-2H-1-benzopyran-3-yl]-6-methylthieno[2,3-b]pyridine-2-carboxamide]	50 to 200 nM
Cc1ccc2c(N)c(C(=O)N[C@H]3COc4cc(N5C[C@@H](N)CC[C@@H]5C(F)(F)F)ccc4C3)sc2n1 [Example 246, 3-amino-N-[(3R)-7-[(2R,5S)-5-amino-2-(trifluoromethyl)piperidin-1-yl]-3,4-dihydro-2H-1-benzopyran-3-yl]-6-methylthieno[2,3-b]pyridine-2-carboxamide]	1 to 50 nM
Cc1ccc2c(N)c(C(=O)N[C@H]3COc4cc(N5C[C@H](N)CC[C@H]5C(F)(F)F)ccc4C3)sc2n1 [Example 247, 3-amino-N-[(3R)-7-[(2S,5R)-5-amino-2-(trifluoromethyl)piperidin-1-yl]-3,4-dihydro-2H-1-benzopyran-3-yl]-6-methylthieno[2,3-b]pyridine-2-carboxamide]	50 to 200 nM
